In one experiment the test system is Astrocyte. Kind of experiment: Astrocyte reversal activity in astrocytes. It counts as functional. Particulars: read-out: ED50 (the source's name).
The test system of another experiment is KB. Nature of the experiment: Cytotoxicity against human KB cells. Format: functional. On the set-up: concentration or dose not given beside the values.

Some results are limits rather than exact numbers.

For `CC(=O)O[C@@]12CO[C@@H]1C[C@H](O)[C@@]1(C)C(=O)[C@H](O)C3=C(C)[C@@H](O)C[C@@](O)([C@@H](OC(=O)c4ccccc4)[C@H]21)C3(C)C`, the EC50 in the experiment on Astrocyte was found to be 1 µg/mL. The Activity in the experiment on KB was found to be 16%.
With `CC(=O)O[C@H]1C(=O)[C@]2(C)[C@@H](OC(C)=O)C[C@H]3OC[C@@]3(OC(C)=O)[C@H]2[C@H](OC(=O)c2ccccc2)[C@]2(O)C[C@H](OC(=O)[C@H](OC(C)=O)[C@@H](NC(=O)c3ccccc3)c3ccccc3)C(C)=C1C2(C)C`, the EC50 with Astrocyte was determined as 0.03 µg/mL. This compound showed an Activity in the experiment with KB of 16%.
The corresponding values for `CC(=O)O[C@H]1C[C@H]2OC[C@@]2(OC(C)=O)[C@H]2[C@H](OC(=O)c3ccccc3)[C@]3(O)C[C@H](OC(=O)[C@H](OC(C)=O)[C@@H](NC(=O)c4ccccc4)c4ccccc4)C(C)=C([C@@H](O)C(=O)[C@]12C)C3(C)C` are < 0.01 µg/mL and 16%.
The corresponding values for `C=C1[C@@H](O)C[C@H](OC(C)=O)[C@@]2(C)[C@@H](OC(C)=O)[C@H](OC(C)=O)C3=C(C)[C@@H](OC(C)=O)C[C@@H]([C@@H](OC(C)=O)[C@H]12)C3(C)C` [DECINNAMOYLTAXININE J] are 28 µg/mL and 16%.
The matching figures for `CC(=O)O[C@H]1C(=O)[C@@]2(C)[C@H]([C@H](OC(=O)c3ccccc3)[C@]3(O)C[C@H](OC(=O)[C@H](O)[C@@H](NC(=O)c4ccccc4)c4ccccc4)C(C)=C1C3(C)C)[C@]1(OC(C)=O)CO[C@@H]1C[C@@H]2O` [PACLITAXEL]: < 0.01 µg/mL and 31%.

For the origin of these results see ChEMBL document CHEMBL1151398, “New taxanes from Taxus brevifolia” (1982).
